This note sets out measurements from ChEMBL document CHEMBL4414609, “High-Affinity Alkynyl Bisubstrate Inhibitors of Nicotinamide N-Methyltransferase (NNMT)” (J Med Chem, 2019).

Each structure is given as a SMILES string.

Series [1] addresses T1, Nicotinamide N-methyltransferase (Homo sapiens, UniProt P40261).
T1 sequence (P40261 whole entry): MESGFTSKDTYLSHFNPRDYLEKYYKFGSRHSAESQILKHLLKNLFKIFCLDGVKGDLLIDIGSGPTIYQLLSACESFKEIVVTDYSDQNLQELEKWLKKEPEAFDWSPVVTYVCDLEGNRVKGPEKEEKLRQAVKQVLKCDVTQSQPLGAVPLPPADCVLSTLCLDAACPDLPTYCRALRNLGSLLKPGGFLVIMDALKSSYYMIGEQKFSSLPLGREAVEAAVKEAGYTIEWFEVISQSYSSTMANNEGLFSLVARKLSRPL
Kind of series: Inhibition of N-terminal His6-tagged wild type human NNMT expressed in Escherichia coli NiCo21(DE3) assessed as reduction in 1-methylquinolinium level using quinoline as substrate in presence of SAM and measured every 27 seconds for 5.5 mins by fluorescence-based assay. As to conditions: read-out: pKi (converted).

A short description of series [2]: Permeability across apical to basolateral side in human Caco2 cells after 60 mins by HPLC-MS/MS analysis. Type of series: ADME, cell-based. The following applies: caco-2, 1 h. (Passage across Caco-2 layers is used to estimate intestinal permeability.)
Series [3] deals with U2OS. Kind of series: Cytotoxicity against human U2OS cells at 100 uM after 48 hrs by CellTiter-Glo luminescent cell viability. The series is classed as cell-based. For orientation: In ATP-based viability assays light output follows the ATP content of the culture.
Series [4] has as its target T2, Nicotinamide N-methyltransferase (Homo sapiens) (UniProt P40261).
T2 sequence (whole entry): T1 sequence (P40261 whole entry)
As to conditions: K562, Lysate.

The ΔTm is the change in melting temperature against a reference sample.

For `NC(=O)c1ccccc1C#C[C@@H](CC[C@H](N)C(=O)O)C[C@H]1O[C@@H](n2cnc3c(N)ncnc32)[C@H](O)[C@@H]1O`, in series [1], the Ki is 19.5 µM.

For the compound `NC(=O)c1cccc(CCN(CCC[C@H](N)C(=O)O)C[C@H]2O[C@@H](n3cnc4c(N)ncnc43)[C@H](O)[C@@H]2O)c1`, the Ki in series [1] is 0.0891 µM.

Regarding `Nc1ncnc2c1ncn2[C@@H]1O[C@H](C[C@@H](C#Cc2ccc3c(c2)C(=O)NC3)CC[C@H](N)C(=O)O)[C@@H](O)[C@H]1O`, the Ki in series [1] was 1.86 µM.

Turning to `Cc1ccc(C#C[C@@H](CC[C@H](N)C(=O)O)C[C@H]2O[C@@H](n3cnc4c(N)ncnc43)[C@H](O)[C@@H]2O)cc1C(N)=O`, the Ki in series [1] was 0.00339 µM.

Turning to `Nc1cccc2c(C#C[C@@H](CC[C@H](N)C(=O)O)C[C@H]3O[C@@H](n4cnc5c(N)ncnc54)[C@H](O)[C@@H]3O)cccc12`, the Ki in series [1] is 3.72 µM.

Consider `NC(=O)c1cccc(C#C[C@@H]2C[C@H]2[C@H]2O[C@@H](n3cnc4c(N)ncnc43)[C@H](O)[C@@H]2O)c1`, for which the Ki in series [1] is 3.89 µM.

For the compound `NC(=O)c1cccc(CCN(CC[C@H](N)C(=O)O)C[C@H]2O[C@@H](n3cnc4c(N)ncnc43)[C@H](O)[C@@H]2O)c1`, the Ki in series [1] was 0.912 µM.

Take `NC(=O)c1cc(C#C[C@@H](CC[C@H](N)C(=O)O)C[C@H]2O[C@@H](n3cnc4c(N)ncnc43)[C@H](O)[C@@H]2O)c2c(c1)OCO2`: the Ki in series [1] is 0.0324 µM.

As for `NC(=O)NCC[C@H](C#Cc1cccc(C(N)=O)c1)C[C@H]1O[C@@H](n2cnc3c(N)ncnc32)[C@H](O)[C@@H]1O`, the permeability result in series [2] is given as “Impermeable”. The Activity entry in series [3] is listed as “Non-Toxic”. Besides, in series [1], the Ki was 0.0759 µM. Besides, the ΔTm in series [4] was 5 °C.

For `NC(=O)c1cccc(C#C[C@@H](CCC[C@H](N)C(=O)O)C[C@H]2O[C@@H](n3cnc4c(N)ncnc43)[C@H](O)[C@@H]2O)c1`, in series [1], the Ki is 0.00024 µM.

As to `NC(=O)c1cccc(CC[C@@H](CC[C@H](N)C(=O)O)C[C@H]2O[C@@H](n3cnc4c(N)ncnc43)[C@H](O)[C@@H]2O)c1`, the Ki in series [1] is 0.00468 µM.

With `NC(=O)c1ccnc(C#C[C@@H](CC[C@H](N)C(=O)O)C[C@H]2O[C@@H](n3cnc4c(N)ncnc43)[C@H](O)[C@@H]2O)c1`, the Ki in series [1] is 0.0355 µM.

In series [2], `NCCC[C@H](C#Cc1cccc(C(N)=O)c1)C[C@H]1O[C@@H](n2cnc3c(N)ncnc32)[C@H](O)[C@@H]1O` gave a permeability of 1.3 ×10⁻⁶ cm/s. The Activity result in series [3] is reported as “Non-Toxic”. The Ki in series [1] was 0.0575 µM.

As for `NC(=O)c1ccc(C#C[C@@H](CC[C@H](N)C(=O)O)C[C@H]2O[C@@H](n3cnc4c(N)ncnc43)[C@H](O)[C@@H]2O)cc1`, the Ki in series [1] was 5.75 µM.

As for `NC(=O)c1cc(C#C[C@@H](CC[C@H](N)C(=O)O)C[C@H]2O[C@@H](n3cnc4c(N)ncnc43)[C@H](O)[C@@H]2O)ccc1Cl`, the Ki in series [1] was 0.000191 µM.

In the case of `NC(=O)CCC[C@H](C#Cc1cccc(C(N)=O)c1)C[C@H]1O[C@@H](n2cnc3c(N)ncnc32)[C@H](O)[C@@H]1O`, in series [1], the Ki is 1.05 µM.

Take `NC(=O)c1cccc(C#C[C@@H](CC[C@H](N)C(N)=O)C[C@H]2O[C@@H](n3cnc4c(N)ncnc43)[C@H](O)[C@@H]2O)c1`: the permeability result in series [2] is “Impermeable”. In addition, in series [3], the Activity entry is “Non-Toxic”. For the same compound, the Ki in series [1] was 0.017 µM.

For the compound `Nc1ncnc2c1ncn2[C@@H]1O[C@H](C[C@@H](C#Cc2ccc3c(c2)C(=O)NCC3)CC[C@H](N)C(=O)O)[C@@H](O)[C@H]1O`, the Ki in series [1] was 0.055 µM.

With `Nc1ncnc2c1ncn2[C@@H]1O[C@H](C[C@@H](C#Cc2ccccc2)CC[C@H](N)C(=O)O)[C@@H](O)[C@H]1O`, in series [1], the Ki was 12.6 µM.

As to `Nc1ncnc2c1ncn2[C@@H]1O[C@H](C[C@@H](C#Cc2cccc(S(N)(=O)=O)c2)CC[C@H](N)C(=O)O)[C@@H](O)[C@H]1O`, the Ki in series [1] is 0.195 µM.

For `NC(=O)c1cncc(C#C[C@@H](CC[C@H](N)C(=O)O)C[C@H]2O[C@@H](n3cnc4c(N)ncnc43)[C@H](O)[C@@H]2O)c1`, in series [1], the Ki is 0.00501 µM.

On to `NC(=O)c1cc(C#C[C@@H](CC[C@H](N)C(=O)O)C[C@H]2O[C@@H](n3cnc4c(N)ncnc43)[C@H](O)[C@@H]2O)ccc1C(F)(F)F`, for which the Ki in series [1] was 0.00263 µM.

On to `COC(=O)[C@@H](N)CC[C@H](C#Cc1cccc(C(N)=O)c1)C[C@H]1O[C@@H](n2cnc3c(N)ncnc32)[C@H](O)[C@@H]1O`, for which the permeability entry in series [2] is on record as “Impermeable”. For the same compound, the Activity entry in series [3] is listed as “Non-Toxic”. The Ki in series [1] is 0.437 µM.

For `NC(=O)c1cccc(C#CCC[C@H]2O[C@@H](n3cnc4c(N)ncnc43)[C@H](O)[C@@H]2O)c1`, the Ki in series [1] was 0.263 µM.

Turning to `NC(=O)c1cccc(CC[C@H](CC[C@H](N)C(=O)O)C[C@H]2O[C@@H](n3cnc4c(N)ncnc43)[C@H](O)[C@@H]2O)c1`, the Ki in series [1] is 0.107 µM.

For the compound `Nc1ncnc2c1ncn2[C@@H]1O[C@H](CCCC[C@H](N)C(=O)O)[C@@H](O)[C@H]1O`, in series [1], the Ki was 21.4 µM.

With `CO[C@@H]1O[C@H](C[C@@H](C#Cc2cccc(C(N)=O)c2)CC[C@H](N)C(=O)O)[C@@H](O)[C@H]1O`, in series [1], the Ki is 77.6 µM.

With `NC(=O)c1cc(C#C[C@@H](CC[C@H](N)C(=O)O)C[C@H]2O[C@@H](n3cnc4c(N)ncnc43)[C@H](O)[C@@H]2O)ccc1F`, the Ki in series [1] was 0.00186 µM.

`NC(=O)c1cccc(C#C[C@@H](CC[C@H](N)C(=O)O)C[C@H]2O[C@@H](n3cnc4c(N)ncnc43)[C@H](O)[C@@H]2O)n1`: the Ki in series [1] is 0.00676 µM.

Turning to `NC(=O)c1cccc(C#C[C@H](CC[C@H](N)C(=O)O)C[C@H]2O[C@@H](n3cnc4c(N)ncnc43)[C@H](O)[C@@H]2O)c1`, the Ki in series [1] was 0.123 µM.

Turning to `NC(=O)c1cccc(C#C[C@@H](CCCC(=O)O)C[C@H]2O[C@@H](n3cnc4c(N)ncnc43)[C@H](O)[C@@H]2O)c1`, the Ki in series [1] was 22.4 µM.

On to `NC(=O)c1cc(C#C[C@@H](CC[C@H](N)C(=O)O)C[C@H]2O[C@@H](n3cnc4c(N)ncnc43)[C@H](O)[C@@H]2O)ccn1`, for which the Ki in series [1] is 0.00891 µM.

Consider `C#C[C@@H](CC[C@H](N)C(=O)O)C[C@H]1O[C@@H](n2cnc3c(N)ncnc32)[C@H](O)[C@@H]1O`, for which the Ki in series [1] is 47.9 µM.
